Results as given in paper PMC9085437, “Silica-coated magnetic iron oxide functionalized with hydrophobic polymeric ionic liquid: a promising nanoscale sorbent for simultaneous extraction of antidiabetic drugs from human plasma prior to their quantitation by HPLC” (RSC Advances, 2018).

Test: Pharmacokinetic assessment in healthy fed male volunteers after oral tablet administration, plasma quantified by MSPE-HPLC-UV
Conditions: human, in vivo, 25 mg
Description: The chromatographic analysis was conducted using a Waters alliance e2695, (Massachusetts, USA) system which was equipped with a Waters 2487 dual wavelength detector and C18 TMS endcapping/reversed phase column (Luna 5 μm C18 100 A HPLC column 250 × 4.6 mm id, Phenomenex Co, Torrance, CA) at 40 °C. The mobile phase which being used in an isocratic mode was composed of potassium dihydrogen phosphate and sodium dodecyl sulfate (0.01 M, pH 6): acetonitrile (55 : 45, v/v) and passed through column with flow rate of 1 mL min^−1 (the mobile phase was filtered and degassed daily prior to use in HPLC). […] The column effluent was monitored at UV wavelength of 215 nm and the injection volume was 20.0 μL. The mobile phase was filtered by passing it through a 0.2 μm membrane filter (Millipore, Bedford, MA, USA).
Every frozen human plasma were firstly thawed at room temperature and placed into a sample glass tube. Preparation of plasma before MSPE method was based on protein precipitation with aid of acetonitrile. In this regard, the plasma (1.9 mL) was fortified with 100.0 μL of required concentrations of analytes followed by mixing with 2.0 mL ACN. The obtained solution was vortexed for 1 min and centrifuged for 5 min at 3500 rpm. Then, ACN content of the clear supernatant was evaporated under nitrogen stream and the remaining sample was transferred into 4.0 mL buffer solution at pH 4.0. Sample volume after evaporation under nitrogen stream was about 2 mL and total sample volume after transferring to 4 mL buffer solution was about 6 mL. 5.0 mL of the deproteinized samples containing target drugs were subjected to the extraction procedure for subsequent analysis.
Initially, 5.0 mL of the deproteinized human plasma (initial volume of spiked plasma sample 2.0 mL) was placed into a glass tube and 10.0 mg of magnetic Fe3O4@SiO2@PIL was added to the sample. The mixture was sonicated for 4 min to totally disperse the magnetic sorbent through the matrix and complete the extraction of target drugs at room temperature. Analyte-loaded sorbent was collected from the sample solution by exposing the glass tube to a powerful neodymium–iron–boron (Nd–Fe–B) magnet (5 × 5 × 4 cm, 0.8 tesla), and the upper phase was poured out. Later, the adsorbed analytes were eluted by 1.0 mL of acetonitrile (0.5 mL every time and washed two times) to desorb the analytes. Elution process was completed during 2 min in the ultrasonic bath. The magnet was used again to separate the sorbent and then the total volume of eluted solution was collected and evaporated to dryness under stream of the nitrogen. The dry residue was re-dissolved in 100.0 μL of mobile phase and stirred for 1 min. Finally, 20.0 μL of this solution was injected into the HPLC-UV system for analysis.
Eight healthy fed male volunteers within the age range of 28–42 years old were enrolled in these studies. […] The plasma samples were immediately transferred into a clean polypropylene tube and stored at −18 °C until being used. All assessments were approved by “The Committee For Research Ethics” of Department of Pharmacy and Pharmaceutical Sciences Research Center, Tehran University of Medical Sciences. In the next experiments, a single oral dose administration of Jardiance tablet (25 mg EMPA) was performed to four volunteers and the blood samples were collected and treated as the previous experiments. Each real sample was extracted at optimal conditions by the proposed procedure and the mean plasma concentration–time curve was obtained.

For `OC[C@H]1O[C@@H](c2ccc(Cl)c(Cc3ccc(O[C@H]4CCOC4)cc3)c2)[C@H](O)[C@@H](O)[C@@H]1O` [EMPA, empagliflozin], which AUC(0-inf) is on record?
Its AUC(0-inf) is 1.43 ± 0.151 µg·h/mL.

And the AUC(0-t)?
The AUC(0-t) was 1.4 ± 0.122 µg·h/mL.

What about the Cmax of the same compound?
The Cmax was 0.216 ± 0.0441 µg/mL.

What about the Tmax of the same compound?
The Tmax was 2.9 ± 0.3 h.

What about the half-life of the same compound?
The half-life was 7.2 ± 1.1 h.
